Data as given in patent US6593365B1, “Diflunisal esters and related compounds” (The University of Queensland, priority 1997, dated 2003).
Where two headings read alike, the source gives them in different places. Marks after values point to notes of the source that are not given here.

Legend:
[1] = Intrinsic (maximum) solubility in water at pH 1.5; assay type: physicochemical; conditions: water at pH 1.5, 25 1° C.; U = Undetectable
Experimental: The pH conditions were chosen to ensure that the solubility of the unionised species was estimated. […] Lea & Febiger/Philadelphia. […] […] The solvent (9.9 mL) was then added to the test tube. […] The test tube was sonicated for 15 minutes and centrifuged for 10 minutes (3000 g at 25° C.). An aliquot was filtered (Minisart 0.45 μm filter, Satorius) and diluted with HPLC mobile phase, then assayed. The tube was stored carefully in a 25° C. water bath after sampling and the remaining suspension was again sonicated and the process repeated 7 times at four hourly intervals. In these assays, standard curves were prepared by directly dissolving the esters in mobile phase. Concentrations for standard curves ranged from 1-50 μg/mL for all compounds. Furthermore, a manual injector (Waters Model U6K) was used (20 μL sample loop) which ensured that 20 μL was consistently injected onto the column and precluded the need for an internal standard.

[2] = Maximum solubility in 2% BSA Krebs-Henseleit buffer (pH 7.4); assay type: physicochemical; conditions: 25 1° C.
Excerpt: The intrinsic solubility of diflunisal esters is extremely low (TABLE 2). The more lipophilic the analogue, the higher the solubility of solute under these conditions.

[3] = system: human platelet rich plasma; assay: Platelet aggregation induced by arachidonic acid; assay type: cell-based; conditions: compound 600 µM, 37° C., arachidonic acid 200 µM
Experimental: Platelet aggregation studies were carried out using a single channel Lumiaggregometer (Chrono-Log Company, Haverton, Pa.) at 37° C. using human platelet-rich and platelet-poor plasma. Platelet-rich plasma (PRP) with a platelet concentration of […] (measured with a Coulter counter) was prepared by centrifuging 3.8% citrated […] (1:9) at 1,500 rpm using a (Beckman) benchtop centrifuge at room temperature for 15 minutes. Platelet-poor plasma (PPP) was prepared by further centrifuging residual blood from platelet-rich plasma at 3,000 rpm for 30 minutes. Platelet-poor plasma was also confirmed b y Coulter counting for platelet content.
Platelet aggregation studies were preceded by pipetting 0.4 mL platelet-rich plasma into a stirred aggregometer tube and calibrate to 90% of recorder. Platelet-poor plasma was set to calibrate at 10% of recorder. Platelet aggregation was initiated by the addition of a arachidonic acid (Sigma) or ADP (Sigma).
10 mM solutions of each compound (TABLE 6) were prepared in 1 mL of normal saline solution (containing 4% BSA) before use. An aliquot (400 μL) of platelet-rich plasma was pipetted into a stirred aggregometer tube at 37° C. and 30 μL of test sample added simultaneously. This mixture was preincubated for varying period (3 to 45 minutes), then arachidonic acid (AA) was added (final conc.=200 μM) to initiate platelet aggregation. If no aggregation occurred, 20 μM ADP was added to confirm the vitality of the platelets (if the platelets are vital, ADP will induce this AA-test sample-plasma mixture to aggregate). This procedure is necessary to investigate whether the non-aggregation phenomenon is due to drug inhibition or simply due to inviable platelets (unable to respond to AA). The degree of aggregation was measure by calculating the area under the turbidimetric response curve (AUC).

[4] = system: superoxide generated from xanthine oxidase plus xanthine reaction; assay: Xanthine oxidase plus xanthine-induced chemiluminescence; assay type: biochemical; set-up: dose or concentration left out as unconfirmed; conditions: X: CL induced by xanthine oxidase plus xanthine
Experimental: To clarify the role of aspirin analogues and diflunisal esters in free radicals scavenging, the Fenton's reagent was replaced by an artificial superoxide generating system in the CL inhibition studies. This cell-free system consisted of 100 μg/mL of xanthine oxidase (Sigma) plus 0.5 μM xanthine (Sigma) (Rosen and Klebanoff, 1976, J Clin Invest 58 50-60; Cheson et al., 1976, J Clin Invest 58 789-796).
(§1) CL measurements were always done in triplicate and Student's t-test used to assess the statistical significance of the difference between measurements.

[5] = system: ischaemic/reperfusion rat livers; assay: Ischaemic/reperfusion injury in rat livers (LDH release, bile production); set-up: species or system Female Sprague-Dawley rats; conditions: Rattus norvegicus
Experimental: Female Sprague-Dawley rats (220-250 g) were anaesthetised by interperitoneal injection of pentobarbital sodium (60 mg/kg, Boehringer Ingelhein). […] The bile duct was cannulated with a polyethylene tubing (PE-10, I.D. 0.28 mm; Clay Adams, New Jersey) and bile was collected into pre-weighed microcentrifuge tubes at 70 min intervals (in the middle of experiment and the end of experiment). The portal vein was then cannulated using a 16 G intravenous catheter and the liver was perfused via this cannula with 2% BSA Krebs-Henseleit bicarbonate buffer (pH 7.4) and oxygenated using a membrane oxygenator comprising of silastic tubing and ventilated with carbogen (95% O2/5% CO2). The perfusion system used was recirculating and employed a peristaltic pump (Cole-Parmer, Illinois).
Following a 10 min pre-ischaemia perfusion, the perfusion flow was stopped for 30 min at 37° C. with the liver being kept moist. At the end of this ischaemic phase, a known concentration of the aspirin analogue or diflunisal ester's solution (in 2% BSA Krebs-Henseleit buffer) was added into the perfusate prior to the perfusion being resumed for another 100 min. Outflow fractions were collected up to 140 min. A biochemistry autoanalyzer (Hitachi, model 747; Tokyo, Japan) was employed to determine the level of enzyme (LDH) release.
The degree of ischaemic/reperfusion injury was measured by calculating the area under the LDH release ([…]) versus time curve (AUC). […] The efficacy of each compound is expressed in terms of ED50 which represents the molar dose for 50% reduction of LDH release compared to the control. The comparison of bile production between the first stage of experiment (the first 70 min) and the second stage of experiment (the last 70 min) is also used as index of liver function during an experiment.

[6] = system: OH. generated from Fenton's reaction; assay: Luminol-dependent chemiluminescence induced by Fenton's reagent; assay type: biochemical; set-up: unit of the concentration uncertain; conditions: F: CL induced by Fenton's reagent, n=3
Experimental: CL was measured with a luminometer (Model 1250; LKB Wallac, Finland) and recorded in millivolts (Cheung et al., 1984, supra).
Fenton's reagent (FeSO4 and H2O2) was used as a standard reaction mixture for the generation of OH. (Lai and Piette, 1979, Tetrahedron Lett. 775-778):
Fe^+++H2O2→Fe^++++OH.+OH (1)
The initial reaction mixture consisted of 20 μL of 3.8 mM FeSO4.7H2O, 20 μL of 5 mg/mL luminol (Sigma), and 2 mL of 1 mM phosphate buffer in a 3 mL polystyrene cuvette. Twenty microlitres of 320 mM H2O2 was added to initiate the Fenton's reaction.
A known concentration of the ethanolic (≲1%) aspirin analogue or diflunisal ester's stock solution was added to the 1 mM phosphate buffer to prepare solutions with a final concentration of 50 μM, 250 μM or 500 μM. Twenty microlitres of these test samples was added onto the cuvette which contained the initial reaction mixture. H2O2 was added to induce CL reaction. The luminol-dependent CL response was recorded in mV by a potentiometric recorder.
as §1

[7] = system: in-situ perfused rat liver; assay: In-situ rat liver perfusions, hepatic extraction (Example 4); assay type: in vitro ADME; conditions: protein-free Krebs-Henseleit buffer as perfusate; hepatic extraction=1- hepatic availability (F)
Experimental: The hepatic availability (F) for the O-acyl esters of SA and DF was determined using a once through in-situ perfused rat liver preparation (Mellick and Roberts, 1996, J Pharm Pharmacol 48:738-743). Liver was perfused with protein-free Krebs-Henseleit buffer at 30 mL/min for aspirin analogues and with Krebs-Henseleit buffer containing 2% BSA for diflunisal esters studies. Since the solubilities of the diflunisal esters in protein-free media were very low, 2% BSA were used to help to solubilize these compounds. Briefly, 50 μL of a saturated solution of the particular O-acyl SA or DF in Krebs-Henseleit buffer was injected as a bolus into the portal vein cannula. Perfusate outflow samples have collected via a fraction collector over 3 min. 100 μL of these samples was assayed by HPLC to determine the residual concentration of presented ester and the quantity of phenolic metabolite (SA or DF) collected from the perfused liver. The HPLC assay was a modification of the method used by Owen et al. (1987, J Chrom B Biomed Appl 416 293-302) and Rumble et al. (1981, J Chrom 225 252-260).
The hepatic availability (F) was calculated from the ratio of the area under the first moment curve, i.e., outflow concentration time-time profile to the area under the curve for the salicylate phenolic esters, with the assistance of the Moments Calculator 2.2 program for Macintosh computer developed by Robert Purves (1994, J Pharm Sci 83:202-205).

[8] = In vitro non-enzymatic hydrolysis in Krebs-Henseleit buffer; assay type: physicochemical; conditions: pH 7.4, 25° C., n=5
Experimental: These experiments were carried out both in Krebs-Henseleit buffer containing either no protein or 2% w/v BSA (bovine serum albumin, fraction V, Sigma) at pH 7.4 and 25±1° C.
Solutions of the derivatives in Krebs buffer (10 mL) was prepared in siliconised glass tubes. Each solution was sonicated for 5 minutes and centrifuged for 5 minutes (3000 g) at 25° C. to ensure maximum dissolution and to sediment any undissolved precipitate. About 7.5 mL of the supernatant was then transferred to a clean siliconised test tube and a 100 μL aliquot was removed and assayed. […] The rate of non-enzymatic hydrolysis (k) for each derivative was then estimated using the following equation: […]
where C1 is the concentration of the ester at any time (t), and C0 is the concentration of the ester at time zero. The half-life (t½) was determined using the formula: […]

| Maximum solubility [1] | Maximum solubility [2] | Maximum solubility ([2]; mean standard deviation (n=3)) | CL inhibition (%) [4] | Hepatic extraction [7] | Hydrolysis rate constant (k) ([8]; Krebs-Henseleit buffer 0% BSA, U = Undetectable) | Hydrolysis rate constant (k) ([8]; Krebs-Henseleit buffer 2% BSA) | Structure (SMILES) | Platelet Aggregation (% of control) ([3]; preincubation 3 minutes) | Platelet Aggregation (% of control) ([3]; preincubation 5 minutes) | Platelet Aggregation (% of control) ([3]; preincubation 8 minutes) | Platelet Aggregation (% of control) ([3]; preincubation 10 minutes) | Platelet Aggregation (% of control) ([3]; preincubation 12 minutes) | Platelet Aggregation (% of control) ([3]; preincubation 15 minutes) | Platelet Aggregation (% of control) ([3]; preincubation 20 minutes) | Platelet Aggregation (% of control) ([3]; preincubation 25 minutes) | Platelet Aggregation (% of control) ([3]; preincubation 45 minutes) | EC50 ([5]; C is the ED50 molar dose, read-out: log 1/C (converted)) | EC50 ([5]; molar dose for 50% reduction of LDH release compared to control, 30 min ischaemia, 100 min reperfusion, read-out: ED50 (the source's name)) | CL inhibition (%) ([6]; 2.5 (unit uncertain) compound) | CL inhibition (%) ([6]; 5 (unit uncertain) compound) |
| --- | --- | --- | --- | --- | --- | --- | --- | --- | --- | --- | --- | --- | --- | --- | --- | --- | --- | --- | --- | --- |
| 0.01 mM | 10.29 mM | 3150 ± 20 µg/mL | – | – | – | – | CCC(=O)Oc1ccc(-c2ccc(F)cc2F)cc1C(=O)O [Compound C3D, n-propionyldiflunisal] | 96.5 ± 3.1 % of control | 89.3 ± 0.4 % of control | 67.3 ± 0.1 % of control | 49.7 ± 1.1 % of control | 19.3 ± 0.5 % of control | 0 % of control | 0 % of control | 0 % of control | 0 % of control | – | – | – | – |
| – | – | – | 0.2 ± 0.0% | 0.05^c | – | – | O=C(O)c1ccccc1O [SA, 2-hydroxybenzoic acid, reference compound] | – | – | – | – | – | – | – | – | – | 72.4 µM | 72.6 µM | 52.9 ± 2.1% | 99.0 ± 1.0% |
| 6.3 mM | – | – | – | – | 0.0147 ± 0.0025 hour^1 | 0.0102 ± 0.0031 hour^1 | CCC(=O)Oc1ccccc1C(=O)O [Compound C3SA, n-propionylsalicylic acid] | 0 % of control | 0 % of control | 0 % of control | 0 % of control | 0 % of control | 0 % of control | 0 % of control | 0 % of control | 0 % of control | – | – | – | – |
